This note sets out measurements from US12590106B2, “Spiromacrocyclic orexin 2 receptor agonists” (H. Lundbeck A/S, priority 2023, dated 2026).

In this assay the target is T1, human Ox2R (Homo sapiens, UniProt O43614).
T1 construct: The gene encoding hOx2R was subcloned into the expression plasmid pcDNA5/FRT/TO; expressed in transfected cells; host or cells: CHO Flp-In cells (pcDNA5/FRT/TO with pOG44 Flp recombinase vector, hygromycin B selection)
T1 sequence (O43614 1-444): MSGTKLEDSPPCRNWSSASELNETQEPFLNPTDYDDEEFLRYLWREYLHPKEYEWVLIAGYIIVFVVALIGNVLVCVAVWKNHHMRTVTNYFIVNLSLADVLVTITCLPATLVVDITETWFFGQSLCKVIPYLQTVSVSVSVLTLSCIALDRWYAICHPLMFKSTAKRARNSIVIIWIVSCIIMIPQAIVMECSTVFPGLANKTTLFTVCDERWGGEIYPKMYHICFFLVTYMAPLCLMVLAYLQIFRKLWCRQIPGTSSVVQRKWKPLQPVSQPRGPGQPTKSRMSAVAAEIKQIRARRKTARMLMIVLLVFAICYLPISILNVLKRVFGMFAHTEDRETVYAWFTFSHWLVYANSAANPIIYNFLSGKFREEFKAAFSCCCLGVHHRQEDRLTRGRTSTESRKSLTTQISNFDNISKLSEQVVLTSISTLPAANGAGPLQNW
In words: Measurement of OX2R agonist activity (cell-based calcium release assay). As to conditions: hOx2R-CHO Flp-In cells, n≥2 tests; for EC50: intracellular calcium, read-out: EC50; for Emax (%) / Emax: normalized to assay buffer (0%) and 10 μM Danavorexton (100%); for Emax: read-out: Emax (%). The procedure, abridged: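 CHO Flp-In cells stably expressing human Ox2R, dye-loaded 1 h at 37 °C in HBSS/20 mM HEPES pH 7.4 with 2.5 mM probenecid and 10 mM CaCl2, then stimulated with compound.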
A general note: A change in cytosolic calcium serves as a functional read-out for many receptors and channels.

In the case of `C[C@H]1C[C@H](NS(C)(=O)=O)C[C@]12Cc1ccc(F)c(c1)-c1cccc(F)c1OCc1coc2n1` [Example 61, N-[(1′S,4′S,14R)-6,19-difluoro-4′-methyl-spiro[8,12-dioxa-21-azatetracyclo[14.3.1.110,13.02,7]henicosa-1(19),2,4,6,10,13(21),16(20),17-octaene-14,3′-cyclopentane]-1′-yl]methanesulfonamide or N-[(1′R,4′R,14S)-6,19-difluoro-4′-methyl-spiro[8,12-dioxa-21-azatetracyclo[14.3.1.110,13.02,7]henicosa-1(19),2,4,6,10,13(21),16(20),17-octaene-14,3′-cyclopentane]-1′-yl]methanesulfonamide], the EC50 turned out to be 140 nM and the “Emax (%)” value was determined as 96%.
In the same order, the values of `C[C@@H]1C[C@@H](NS(C)(=O)=O)C[C@@]12Cc1ccc(F)c(c1)-c1ccccc1OCc1coc2n1` [Example 63, N-[(1′R,4′R,14S)-19-fluoro-4′-methyl-spiro[8,12-dioxa-21-azatetracyclo[14.3.1.110,13.02,7]henicosa-1(19),2,4,6,10,13(21),16(20),17-octaene-14,3′-cyclopentane]-1′-yl]methanesulfonamide or N-[(1′S,4′S,14R)-19-fluoro-4′-methyl-spiro[8,12-dioxa-21-azatetracyclo[14.3.1.110,13.02,7]henicosa-1(19),2,4,6,10,13(21),16(20),17-octaene-14,3′-cyclopentane]-1′-yl]methanesulfonamide] are 1.4 nM and 100%.
`CS(=O)(=O)N[C@H]1CC[C@@]2(Cc3cc(ccc3F)-c3ccccc3OCc3coc2n3)C1` [Example 10, N-[(1′S,14R)-17-fluorospiro[8,12-dioxa-21-azatetracyclo[14.3.1.110,13.02,7]henicosa-1(19),2,4,6,10,13(21),16(20),17-octaene-14,3′-cyclopentane]-1′-yl]methanesulfonamide]: the EC50 came to 1.5 nM and the maximal effect (Emax) was 100%.
The like results for `CS(=O)(=O)N[C@H]1CC[C@@]2(Cc3ccc(F)c(c3)-c3cccc(F)c3OCC3=CN=C2O3)C1` [Example 7, N-[(1′S,14R)-6,19-difluorospiro[8,21-dioxa-12-azatetracyclo[14.3.1.110,13.02,7]henicosa-1(19),2,4,6,10,12,16(20),17-octaene-14,3′-cyclopentane]-1′-yl]methanesulfonamide] were, in that order, 21 nM and 99%.
In the same order, the values of `O=S(=O)(N[C@H]1CC[C@@]2(Cc3ccc(F)c(c3)-c3ccc(F)c(F)c3OCc3coc2n3)C1)C1CC1` [Example 34, N-[(1′S,14R)-5,6,19-trifluorospiro[8,12-dioxa-21-azatetracyclo[14.3.1.110,13.02,7]henicosa-1(19),2,4,6,10,13(21),16(20),17-octaene-14,3′-cyclopentane]-1′-yl]cyclopropanesulfonamide] are 0.8 nM and 98%.
The like results for `O=S(=O)(N[C@H]1CC[C@@]2(Cc3ccc(F)c(c3)-c3cccc(F)c3OCc3coc2n3)C1)C(F)(F)F` [Example 114, N-[(1′S,14R)-6,19-difluorospiro[8,12-dioxa-21-azatetracyclo[14.3.1.110,13.02,7]henicosa-1(19),2(7),3,5,10,13(21),16(20),17-octaene-14,3′-cyclopentane]-1′-yl]-1,1,1-trifluoro-methanesulfonamide] were, in that order, 0.19 nM and 110%.
For the compound `CS(=O)(=O)N[C@H]1CC[C@@]2(Cc3ccc(F)c(c3)-c3ccc(F)c(F)c3OCc3coc2n3)C1` [Example 14, N-[(1′S,14R)-5,6,19-trifluorospiro[8,12-dioxa-21-azatetracyclo[14.3.1.110,13.02,7]henicosa-1(19),2,4,6,10,13(21),16(20),17-octaene-14,3′-cyclopentane]-1′-yl]methanesulfonamide], the 50% effective concentration (EC50) is 0.62 nM and the Emax amounted to 97%.
Take `CS(=O)(=O)N[C@H]1CC[C@@]2(Cc3ccc(F)c(c3)-c3cccc(F)c3OCc3nccc2n3)C1` [Example 95, N-[(1′S,15R)-6,20-difluorospiro[8-oxa-11,22-diazatetracyclo[15.3.1.110,14.02,7]docosa-1(20),2,4,6,10,12,14(22),17(21),18-nonaene-15,3′-cyclopentane]-1′-yl]methanesulfonamide]: the EC50 was found to be 8 nM and the maximum response (Emax) was 100%.
In the same order, the values of `O=S(=O)(N[C@H]1CC[C@@]2(Cc3ccc(F)c(c3)-c3cccc(F)c3OCc3coc2n3)C1)C(F)F` [Example 115, N-[(1′S,14R)-6,19-difluorospiro[8,12-dioxa-21-azatetracyclo[14.3.1.110,13.02,7]henicosa-1(20),2,4,6,10,13(21),16,18-octaene-14,3′-cyclopentane]-1′-yl]-1,1-difluoro-methanesulfonamide] are 0.37 nM and 97%.
In the same order, the values of `CS(=O)(=O)N[C@H]1CC[C@@]2(Cc3cccc(c3)-c3cccc(c3)OCc3ccnc2n3)C1` [Example 86, N-[(1′S,14R)-spiro[7-oxa-12,21-diazatetracyclo[14.3.1.12,6.19,13]docosa-1(20),2,4,6(22),9,11,13(21),16,18-nonaene-14,3′-cyclopentane]-1′-yl]methanesulfonamide] are 90 nM and 100%.
On to `[2H]C1([2H])Oc2c(F)cccc2-c2cc(ccc2F)C[C@@]2(CC[C@H](NS(C)(=O)=O)C2)c2nc1co2` [Example 6, N-[(1′S,14R)-9,9-dideuterio-6,19-difluoro-spiro[8,12-dioxa-21-azatetracyclo[14.3.1.110,13.02,7]henicosa-1(19),2,4,6,10,13(21),16(20),17-octaene-14,3′-cyclopentane]-1′-yl]methanesulfonamide], for which the EC50 is 0.11 nM and the Emax was 100%.
With `CS(=O)(=O)N[C@H]1CC[C@@]2(Cc3cccc(c3)-c3cccc(F)c3OCc3coc2n3)C1` [Example 44, N-[(1′S,14R)-6-fluorospiro[8,12-dioxa-21-azatetracyclo[14.3.1.110,13.02,7]henicosa-1(19),2,4,6,10,13(21),16(20),17-octaene-14,3′-cyclopentane]-1′-yl]methanesulfonamide], the EC50 stood at 0.54 nM and the Emax was 99%.
The like results for `CS(=O)(=O)N[C@H]1CC[C@@]2(Cc3cc(c(F)cn3)-c3cccc(F)c3OCc3coc2n3)C1` [Example 106, N-[(1′S,14S)-6,19-difluorospiro[8,12-dioxa-17,21-diazatetracyclo[14.3.1.110,13.02,7]henicosa-1(20),2,4,6,10,13(21),16,18-octaene-14,3′-cyclopentane]-1′-yl]methanesulfonamide] were, in that order, 26 nM and 98%.
On to `CS(=O)(=O)N[C@H]1CC[C@@]2(CO[C@H]3CC[C@H](CC3)c3ccccc3OCc3noc2n3)C1` [Example 64, N-[(1s,1′S,14R,17s)-spiro[8,12,16-trioxa-11,22-diazatetracyclo[15.2.2.110,13.02,7]docosa-2,4,6,10,13(22)-pentaene-14,3′-cyclopentane]-1′-yl]methanesulfonamide], for which the EC50 came out at 3 nM and the maximal effect (Emax) came to 100%.
The like results for `CS(=O)(=O)N[C@H]1CC[C@@]2(Cc3cc(ccc3F)-c3ccc(F)c(F)c3OCc3coc2n3)C1` [Example 28, N-[(1′S,14R)-5,6,17-trifluorospiro[8,12-dioxa-21-azatetracyclo[14.3.1.110,13.02,7]henicosa-1(19),2,4,6,10,13(21),16(20),17-octaene-14,3′-cyclopentane]-1′-yl]methanesulfonamide] were, in that order, 6 nM and 99%.
In the same order, the values of `CS(=O)(=O)N[C@H]1CC[C@@]2(CO[C@H]3C[C@H](C3)c3ccccc3OCc3coc2n3)C1` [Example 72, N-[(1′S,10r,12s,15S)-spiro[3,13,17-trioxa-19-azatetracyclo[14.2.1.110,12.04,9]icosa-1(18),4,6,8,16(19)-pentaene-15,3′-cyclopentane]-1′-yl]methanesulfonamide] are 190 nM and 97%.
For the compound “N-[(3′R,14S)-6,17,19-trifluorospiro[8,12-dioxa-21-azatetracyclo[14.3.1.110,13.02,7]henicosa-1(19),2,4,6,10,13(21),16(20),17-octaene-1′,5′-tetrahydrofuran′-3′-yl]methanesulfonamide or N-[(3′S,14R)-6,17,19-trifluorospiro[8,12-dioxa-21-azatetracyclo[14.3.1.110,13.02,7]henicosa-1(19),2,4,6,10,13(21),16(20),17-octaene-1′,5′-tetrahydrofuran′-3′-yl]methanesulfonamide [Example 109]”, the EC50 turned out to be 1.6 nM and the “Emax (%)” value stood at 99%.

In general, EC50 refers to the midpoint of the concentration-response curve. For orientation: Emax means the greatest response seen or fitted, relative to the assay's reference.
